Test results: US12612412B2, “Antiviral heterocyclic compounds” (Enanta Pharmaceuticals, Inc., priority 2021, dated 2026)
Read-outs that look alike come from different tables or passages of the source.

Legend:
[1] = system: genotype A, "Long" strain RSV; assay: RSV-A assay (CPE protection in Hep-2 cells, ATPlite readout); format: cell-based, Human respiratory syncytial virus (HRSV); settings: human respiratory syncytial virus, MOI 0.1, CPE protection
How it was run: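 Protection from RSV-induced cytopathic effect measured by ATP content (ATPlite) after 5-day culture. Infection used genotype A Long virus at MOI 0.1 on 8,000 Hep-2 cells per well, with compound serially diluted 2-fold; values are EC50.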

[2] = system: HMPV clinical isolate TN/1501/A1; assay: HMPV antiviral assay Method-B (clinical isolate TN/1501/A1 in LLC-MK2 cells, ATP-Lite readout); format: cell-based, Human metapneumovirus (HMPV); settings: human metapneumovirus, LLC-MK2, 144 h, hMPV WT1501 (clinical isolate TN/1501/A1), 6 days
How it was run: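 LLC-MK2 cells infected in suspension with TN/1501/A1 at MOI 0.014 in serum-free medium with 2 μg/mL TPCK-trypsin (final), incubated 6 days at 37° C. Compounds tested in duplicate, 10-point 3-fold dilutions from 10 μM. Cell health read by ATP-Lite luminescence, normalised to virus-only and cells-only controls; EC50 by four-parameter logistic fit.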

[3] = genotype A “Long” strain RSV, read-out: Human RSV-A (“Long”)
[4] = RSV-A Long strain, read-out: Human RSV-A (“Long”) EC50

Row | SMILES | EC50 [1, 3] [nM] | EC50 [2] [nM] | EC50 [1, 4] [nM]
1 | Cc1nc2c(OC3CC3)cc(C(=O)NC[C@](O)(c3cc4c(c(-c5ccc6c(c5)OC(F)(F)O6)n3)OC[C@]4(C)C(N)=O)C3CC3)cc2cc1Cl [Example 540] | < 200 | < 500 | –
2 | Cc1nc2c(OC3CC3)cc(C(=O)NC[C@](O)(c3cc4c(c(-c5ccc(F)c(F)c5F)n3)OC[C@]4(C)C(N)=O)C3CC3)cc2cc1Cl [Example 530] | < 200 | < 500 | –
3 | Cc1cnc2c(Cl)cc(C(=O)NC[C@](O)(c3cc4c(c(-c5ccc(F)c(Br)c5F)n3)OC[C@]4(C)C(N)=O)C3CC3)cc2c1 [Example 1084] | – | < 500 | < 200
4 | COc1cc(C(=O)NC[C@](O)(c2cc3c(c(-c4cc(F)c(F)cc4F)n2)OC[C@]3(C)C(N)=O)C2CC2)cc2cn(C(F)F)nc12 [Example 1146] | – | < 500 | < 200
5 | COc1cc(C(=O)NC[C@](O)(c2cc3c(c(-c4ccc(Cl)cc4F)n2)OC[C@]3(C)C(N)=O)C2CC2)cc2cn(C3CC3)nc12 [Example 873] | – | < 500 | < 200
6 | COc1cc(C(=O)NC[C@](O)(c2cc3c(c(-c4ccc(F)c(F)c4F)n2)OC[C@]3(C)C(N)=O)C2CC2)cc2cn(C(F)F)nc12 [Example 528] | < 200 | < 500 | –
7 | COc1cc(C(=O)NC[C@](O)(c2cc3c(c(-c4ccc(F)cc4)n2)OC[C@@]3(C(N)=O)C2CC2)C(F)(F)F)cc2cc(C3CC3)nn12 [Example 1065] | – | < 500 | < 200
8 | COc1cc(C(=O)NC[C@](O)(c2nc(-c3cc(Cl)c(F)cc3F)c3c(c2F)[C@@](C)(C(N)=O)CO3)C2CC2)cc2cn(C3CC3)nc12 [Example 862] | – | < 500 | < 200
9 | COc1cc(C(=O)NC[C@](O)(c2cc3c(c(-c4ccc(F)c(F)c4F)n2)OC[C@]3(C)C(N)=O)C(F)(F)F)cc2cc(C3CC3)nn12 [Example 507] | < 200 | < 500 | –
10 | COc1cc(C(=O)NC[C@](O)(c2cc3c(c(-c4ccc(F)c(Cl)c4)n2)OC[C@]3(C)C(N)=O)C2CC2)ccc1OC1CC1 [Example 811] | < 200 | < 500 | –
11 | COc1cc(C(=O)NC[C@](O)(c2cc3c(c(-c4cc(F)c(F)cc4F)n2)OC[C@]3(C)C(N)=O)C2CC2)cc2cc(Br)c(C)nc12 [Example 1150] | – | < 500 | < 200
12 | Cc1cnc2c(Cl)cc(C(=O)NC[C@](O)(c3cc4c(c(-c5cc(Cl)c(F)c(Cl)c5)n3)OC[C@]4(C)C(N)=O)C(F)(F)F)cc2c1 [Example 675] | < 200 | > 500 | –
13 | COc1cc(C(=O)NC[C@](O)(c2cc3c(c(-c4ccc5c(c4)OC(F)(F)O5)n2)OC[C@@]3(C(N)=O)C(F)F)C2CC2)cc2cn(C3(F)CC3)nc12 [Example 1042] | – | < 500 | < 200
14 | COc1cc(C(=O)NC[C@](O)(c2cc3c(c(-c4ccc(F)c(F)c4F)n2)OC[C@]3(C)C(N)=O)C2CC2)cc2cc(Br)cnc12 [Example 532] | < 200 | < 500 | –
15 | COc1cc(C(=O)NC[C@](O)(c2cc3c(c(-c4cc(F)c(Cl)cc4F)n2)OC[C@]3(C)C(N)=O)C2CC2)cc2cn(C3(F)CC3)nc12 [Example 1180] | – | < 500 | < 200
16 | COc1cc(C(=O)NC[C@](O)(c2cc3c(c(-c4ccc(F)c(Cl)c4F)n2)OC[C@]3(C)C(N)=O)C2CC2)cc2cn(C3(F)CC3)nc12 [Example 555] | < 200 | < 500 | –
17 | COc1cc(C(=O)NC[C@](O)(c2cc3c(c(-c4ccc(F)cc4Cl)n2)OC[C@]3(C)C(N)=O)C2CC2)cc2cn(C3(Cl)CC3)nc12 [Example 844] | – | < 500 | < 200
18 | Cc1onc2ccc(C(=O)NC[C@](O)(c3cc4c(c(-c5ccc(F)cc5)n3)OC[C@]4(C)C(N)=O)C(F)(F)F)cc12 [Example 887] | – | > 500 | < 200
19 | Cc1cnc2c(Nc3cnccn3)cc(C(=O)NC[C@](O)(c3cc4c(c(-c5ccc6c(c5)OC(F)(F)O6)n3)OC[C@]4(C)C(N)=O)C3CC3)cc2c1 [Example 773] | < 200 | < 500 | –
20 | Cc1nc2c(OC3CC3)cc(C(=O)NC[C@](O)(c3cc4c(c(-c5ccc(F)c(F)c5Cl)n3)OC[C@]4(C)C(N)=O)C(F)(F)F)cc2cc1Cl [Example 777] | < 200 | < 500 | –
21 | COc1cc(C(=O)NC[C@](O)(c2cc3c(c(-c4cc(F)c(F)c(Cl)c4)n2)OC[C@]3(C)C(N)=O)C(F)(F)F)cc2cc(Br)cnc12 [Example 785] | < 200 | < 500 | –
22 | COc1cc(C(=O)NC[C@](O)(c2cc3c(c(-c4c(F)cc(Cl)cc4F)n2)OC[C@]3(C)C(N)=O)C2CC2)cc2cc(Cl)c(C)nc12 [Example 1159] | – | < 500 | < 200
23 | C[C@]1(C(N)=O)COc2c1cc([C@@](O)(CNC(=O)c1cc(Cl)c3nn(C4CC4)cc3c1)C1CC1)nc2-c1c(F)ccc(Cl)c1F [Example 1166] | – | < 500 | < 200
24 | COc1cc(C(=O)NC[C@](O)(c2cc3c(c(-c4ccc5c(c4)OC(F)(F)O5)n2)OC[C@@]3(C(N)=O)C(F)F)C2CC2)cc2cn(C3CC3)nc12 [Example 1011] | – | < 500 | < 200
25 | COc1cc(C(=O)NC[C@](O)(c2cc3c(c(-c4cc(Cl)c(F)cc4F)n2)OC[C@]3(C)C(N)=O)C(F)(F)F)cc2cc(Br)cnc12 [Example 621] | < 200 | < 500 | –
26 | COc1cc(C(=O)NC[C@](O)(c2cc3c(c(-c4ccc5c(c4)OC(F)(F)O5)n2)OC[C@]3(C)C(N)=O)C2CC2)cn2cc(C3CC3)nc12 [Example 828] | – | < 500 | < 200
27 | COc1cc(C(=O)NC[C@](O)(c2cc3c(c(-c4cc(Br)c(F)cc4F)n2)OC[C@]3(C)C(N)=O)C2CC2)cc2cn(C3(F)CC3)nc12 [Example 1089] | – | < 500 | < 200

Further lines, results first:

Row | EC50 [1, 3] [nM] | EC50 [2] [nM] | EC50 [1, 4] [nM] | SMILES
28 | – | < 500 | < 200 | COc1cc(C(=O)NC[C@](O)(c2cc3c(c(-c4ccc(F)c(Cl)c4F)n2)OC[C@]3(C)C(N)=O)C(F)(F)F)cc2cn(C3CC3)nc12 [Example 930]
29 | – | > 500 | > 200 | COc1cc(C(=O)NC[C@](O)(c2cc3c(c(-c4cccs4)n2)OC[C@]3(C)C(N)=O)C(F)(F)F)cc2cn(C3CC3)nc12 [Example 968]
30 | – | > 500 | > 200 | COc1cc(-c2nc([C@](O)(CNC(=O)c3cc(OC)c4nn(C5CC5)cc4c3)C(F)(F)F)cc3c2OC[C@]3(C)C(N)=O)ccc1F [Example 913]
31 | < 200 | < 500 | – | COc1cc(C(=O)NC[C@](O)(c2cc3c(c(-c4ccc5c(c4)OC(F)(F)O5)n2)OC[C@]3(C)C(N)=O)C2(F)CC2)cc2cn(C3CC3)nc12 [Example 712]
32 | – | < 500 | < 200 | C[C@]1(C(N)=O)COc2c1cc([C@@](O)(CNC(=O)c1cc(Cl)c3nn(C4(F)CC4)cc3c1)C(F)(F)F)nc2-c1ccc(F)cc1 [Example 834]
33 | – | > 500 | > 200 | COc1cc(C(=O)NC[C@](O)(c2cc3c(c(-c4ccc(F)cc4)n2)OC[C@]3(C(N)=O)C(F)F)C2CC2)cc2cn(C3CC3)nc12 [Example 1022]
34 | – | < 500 | < 200 | COc1cc(C(=O)NC[C@](O)(c2cc3c(c(-c4ccc(Cl)cc4F)n2)OC[C@]3(C)C(N)=O)C(F)(F)F)cc2cn(C3CC3)nc12 [Example 987]
35 | – | > 500 | < 200 | COc1cc(C(=O)NC[C@](O)(c2cc3c(c(-c4ccc(C(F)F)cc4)n2)OC[C@]3(C)C(N)=O)C(F)(F)F)cc2cn(C3CC3)nc12 [Example 896]
36 | – | < 500 | < 200 | COc1cc(C(=O)NC[C@](O)(c2cc3c(c(-c4ccc(F)cc4)n2)OC[C@@]3(C(N)=O)C(F)F)C2CC2)cc2cn(C3CC3)nc12 [Example 1023]
37 | < 200 | < 500 | – | COc1cc(C(=O)NC[C@](O)(c2cc3c(c(-c4ccc(F)c(F)c4Cl)n2)OC[C@]3(C)C(N)=O)C2(F)CC2)cc2cn(C3CC3)nc12 [Example 745]
38 | – | > 500 | > 200 | COc1cc(C(=O)NC[C@](O)(c2cc3c(c(-c4cccc(-c5ccccc5)c4)n2)OC[C@]3(C)C(N)=O)C(F)(F)F)cc2cn(C3CC3)nc12 [Example 1251]
39 | – | > 500 | < 200 | COc1ccc(-c2nc([C@@](O)(CNC(=O)c3cc(OC)c4nn(C5CC5)cc4c3)C(F)(F)F)cc3c2OC[C@]3(C)C(N)=O)cc1 [Example 924]
40 | – | < 500 | < 200 | COc1cc(C(=O)NC[C@](O)(c2cc3c(c(-c4cccc(F)c4F)n2)OC[C@]3(C)C(N)=O)C(F)(F)F)cc2cn(C3CC3)nc12 [Example 988]
41 | – | > 500 | < 200 | COc1cc(C(=O)NC[C@](O)(c2cc3c(c(-c4ccc(C5CC5)cc4)n2)OC[C@]3(C)C(N)=O)C(F)(F)F)cc2cn(C3CC3)nc12 [Example 891]
42 | – | > 500 | < 200 | COc1ncc2cc(C(=O)NC[C@](O)(c3cc4c(c(-c5ccc(F)cc5)n3)OC[C@]4(C)C(N)=O)C(F)(F)F)cc(OC)c2n1 [Example 1143]
43 | < 200 | < 500 | – | COc1cc(C(=O)NC[C@](O)(c2cc3c(c(-c4ccc(F)cc4Cl)n2)OC[C@]3(C)C(N)=O)C2(F)CC2)cc2cn(C3CC3)nc12 [Example 732]
44 | < 200 | > 500 | – | COc1cc(C(=O)NC[C@](O)(c2cc3c(c(-c4ccc(F)cc4)n2)OC[C@]3(C)C(N)=O)C(F)(F)F)cc2cn(C3(O)CC3)nc12 [Example 821]
45 | – | < 500 | < 200 | COc1cc(C(=O)NC[C@](O)(c2cc3c(c(-c4ccc(F)c(F)c4F)n2)OC[C@@]3(C(N)=O)C(F)F)C(F)(F)F)cc2cn(C3CC3)nc12 [Example 1039]
